Reference: patent publication US20190223437A1, “ACTIVE COMPOUND COMBINATIONS COMPRISING A 5-SUBSTITUTED IMIDAZOLE DERIVATIVE” (BAYER CROPSCIENCE AKTIENGESELLSCHAFT, priority 2016, published 2019)
Read-outs that look alike come from different tables or passages of the source. Marks after values point to notes of the source that are not given here.

Assay: Measurement of Log P values by HPLC on reversed phase columns (EEC directive 79/831 Annex V.A8)
Format: physicochemical

LogP | SMILES | other results
2.17^[a] | OC(Cc1cccc(F)c1F)(Cn1cncc1Cl)C1(Cl)CC1 (stereo not shown) [Example I-147] | 
 | OC(Cc1ccccc1Cl)(Cn1cncc1Cl)C1(Cl)CC1 (stereo not shown) [Example I-02] | LogP (method [a]: LC-UV, acidic range, 0.1% formic acid in water and acetonitrile as eluent, Table 1, compounds of formula (I)): 2.32; LogP (method [c]: LC-UV, acidic range, 0.1% phosphoric acid and acetonitrile as eluent, Table 1): 2.00
2.34^[a] | Cc1ccc(CC(O)(Cn2cncc2Cl)C2(Cl)CC2)c(F)c1 (stereo not shown) [Example I-108] | 
2.57^[a] | N#Cc1cncn1CC(O)(Cc1ccccc1Cl)C1CC1 (racemic) [Example I-80] | 
2.23^[a] | OC(Cc1ccc(F)c(F)c1)(Cn1cncc1Cl)C1(Cl)CC1 (stereo not shown) [Example I-110] | 
2.78^[a] | N#Cc1cncn1CC(O)(Cc1ccc(F)c(F)c1F)C1CCC1 (stereo not shown) [Example I-104] | 
1.50^[a] | Nc1cncn1CC(O)(Cc1ccccc1Cl)C1(Cl)CC1 (racemic) [Example I-78] | 
2.57^[a] | N#Cc1cncn1CC(O)(Cc1cccc(F)c1F)C1CCC1 (stereo not shown) [Example I-148] | 
2.73^[a] | CCOC(=O)c1cncn1CC(O)(Cc1ccccc1F)C1(Cl)CC1 (stereo not shown) [Example I-135] | 
1.46^[a] | OC(Cc1ccncc1F)(Cn1cncc1Cl)C1(Cl)CC1 (stereo not shown) [Example I-164] | 
1.94^[a] | OC(Cc1ccccc1Cl)(Cn1cncc1F)C1(Cl)CC1 (stereo not shown) [Example I-16] | 
2.53^[a] | N#Cc1cncn1CC(O)(Cc1ccccc1Cl)C1(F)CC1 (racemic) [Example I-98] | 
2.10^[a] | OC(Cc1ccccc1F)(Cn1cncc1Br)C1(Cl)CC1 (racemic) [Example I-33] | 
1.89^[a] | C#Cc1cncn1CC(O)(Cc1ccccc1F)C1(Cl)CC1 (racemic) [Example I-36] | 
3.13^[a] | N#Cc1cncn1CC(O)(Cc1ccccc1I)C1(Cl)CC1 (stereo not shown) [Example I-166] | 
3.60^[a] | O=C(Cc1ccccc1F)c1cncn1CC(O)(Cc1ccccc1F)C1(Cl)CC1 (stereo not shown) [Example I-134] | 
1.52^[a] | OC(Cc1ccncc1Cl)(Cn1cncc1Cl)C1(Cl)CC1 (racemic) [Example I-72] | 

LogP | SMILES | other results
2.38^[a] | N#Cc1cncn1CC(O)(Cc1cc(F)ncc1Cl)C1(Cl)CC1 (stereo not shown) [Example I-165] | 
2.82^[a] | COC(=O)c1cncn1CC(O)(Cc1ccccc1Cl)C1(Cl)CC1 (stereo not shown) [Example I-01] | 
1.72^[a] | Cc1cncn1CC(O)(Cc1ccccc1Cl)C1(Cl)CC1 (stereo not shown) [Example I-03] | 
2.27^[a] | OC(Cc1ccccc1Cl)(Cn1cncc1Br)C1(Cl)CC1 (stereo not shown) [Example I-04] | 
2.64^[a] | OC(Cc1ccc(Br)cc1F)(Cn1cncc1Cl)C1(Cl)CC1 (racemic) [Example I-44] | 
2.62^[a] | OC(Cc1ccccc1C(F)(F)F)(Cn1cncc1Cl)C1(Cl)CC1 (racemic) [Example I-89] | 
1.88^[a] | N#Cc1cncn1CC(O)(Cc1ccncc1Cl)C1(Cl)CC1 (racemic) [Example I-57] | 
2.18^[a] | N#Cc1cncn1CC(O)(Cc1ccncc1C(F)(F)F)C1(Cl)CC1 (racemic) [Example I-92] | 
3.37^[a] | CC(C)(C)CC(O)(Cc1ccc(Cl)cc1)Cn1cncc1C#N (racemic) [Example I-86] | 
1.22^[a] | Cc1cncn1CC(O)(Cc1cccnc1Cl)C1(Cl)CC1 (stereo not shown) [Example I-10] | 
3.31^[a] | C=CCOC(Cc1ccc(Cl)cc1F)(Cn1cncc1Cl)C1(Cl)CC1 (stereo not shown) [Example I-123] | 
 | N#Cc1cncn1C[C@](O)(Cc1ccccc1F)C1(Cl)CC1 [Example I-132, 1-[(2R)-2-(1-chlorocyclopropyl)-3-(2-fluorophenyl)-2-hydroxypropyl]-1H-imidazole-5-carbonitrile] | chromatographic logP (reversed phase HPLC column, method [a]: LC-UV, acidic range, 0.1% formic acid in water and acetonitrile as eluent, Table 1, compounds of formula (I)): 2.59
3.31^[a] | COC(Cc1ccc(Cl)cc1F)(Cn1cncc1C#N)C1CC1 (stereo not shown) [Example I-121] | 
2.08^[a] | CSc1cncn1CC(O)(Cc1ccccc1Cl)C1(Cl)CC1 (stereo not shown) [Example I-22] | 
2.86^[a] | N#Cc1cncn1CC(O)(Cc1cc(F)cc(F)c1)C1(Cl)CC1 (stereo not shown) [Example I-156] | 
3.31^[a] | N#Cc1cncn1CC(O)(Cc1cccc(Cl)c1Cl)C1CCC1 (racemic) [Example I-85] | 
